Source: ChEMBL document CHEMBL1201862, “PubChem BioAssay data set” (2004)
Calls of active or inactive are those of the source.

What was measured:
[1] = target: ADP-ribosylation factor GTPase-activating protein 1 (Rattus norvegicus, UniProt Q62848); experiment: Fluorescence polarization-based biochemical high throughput dose response screening assay to identify inhibitors of ADP-ribosylation factor GTPase activating protein 1 (ARFGAP1).; assay type: functional
[2] = target: Arf-GAP with SH3 domain, ANK repeat and PH domain-containing protein 1 (Homo sapiens, UniProt Q9ULH1); assay type: functional;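 also: biochemical fluorescence polarization dose–response screen measuring inhibition of ASAP1; ASAP1 GAP domain stimulating GTP hydrolysis by truncated human ARF1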
[3] = target: T1, Small ubiquitin-related modifier 1 (Homo sapiens, UniProt P63165); experiment: SUMO1 protein-protein binding blockers, potency – biochemical, FRET, dose response (AID 624383); assay type: functional; details: read-out: IC50_Mean
[4] = target: T1, Small ubiquitin-related modifier 1; experiment: SUMO1 protein interaction blockers, potency – biochemical, fluorescence polarization, uHTS hits, dose response (AID 624382); assay type: functional; details: read-out: IC50_Mean
[5] = target: Photoreceptor-specific nuclear receptor (Homo sapiens, UniProt Q9Y5X4); assay type: functional, cell-based;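 also: CHO-S cells with Gal4-NCOR and VP16-NR2E3 two-hybrid luciferase reporter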
[6] = Luminescence Cell-Based Dose Retest to Confirm Inhibitors of Cancer Stem Cells. [Related pubchem assays (depositor defined):AID2717, AID2721]; assay type: functional; details: Homo sapiens
[7] = target: Tyrosine-protein phosphatase non-receptor type 11 (Homo sapiens, UniProt Q06124); experiment: PTPN11 enzyme inhibitors – biochemical, selectivity assay for STEP inhibitor project, dose response (AID 602367); assay type: functional; details: read-out: IC50_Mean
[8] = target: Dual specificity protein phosphatase 3 (Homo sapiens, UniProt P51452); experiment: VHR phosphatase inhibition, dose response, selectivity assay for STEP inhibitor project, biochemical (AID 602374); assay type: functional; details: read-out: IC50_Mean
[9] = target: T2, Tyrosine-protein phosphatase non-receptor type 22 (Homo sapiens, UniProt Q9Y2R2); experiment: lymphoid phosphatase LYP inhibitors – biochemical, selectivity assay for STEP inhibitor project, dose response (AID 624241); assay type: functional
T2 sequence (Q9Y2R2 whole entry): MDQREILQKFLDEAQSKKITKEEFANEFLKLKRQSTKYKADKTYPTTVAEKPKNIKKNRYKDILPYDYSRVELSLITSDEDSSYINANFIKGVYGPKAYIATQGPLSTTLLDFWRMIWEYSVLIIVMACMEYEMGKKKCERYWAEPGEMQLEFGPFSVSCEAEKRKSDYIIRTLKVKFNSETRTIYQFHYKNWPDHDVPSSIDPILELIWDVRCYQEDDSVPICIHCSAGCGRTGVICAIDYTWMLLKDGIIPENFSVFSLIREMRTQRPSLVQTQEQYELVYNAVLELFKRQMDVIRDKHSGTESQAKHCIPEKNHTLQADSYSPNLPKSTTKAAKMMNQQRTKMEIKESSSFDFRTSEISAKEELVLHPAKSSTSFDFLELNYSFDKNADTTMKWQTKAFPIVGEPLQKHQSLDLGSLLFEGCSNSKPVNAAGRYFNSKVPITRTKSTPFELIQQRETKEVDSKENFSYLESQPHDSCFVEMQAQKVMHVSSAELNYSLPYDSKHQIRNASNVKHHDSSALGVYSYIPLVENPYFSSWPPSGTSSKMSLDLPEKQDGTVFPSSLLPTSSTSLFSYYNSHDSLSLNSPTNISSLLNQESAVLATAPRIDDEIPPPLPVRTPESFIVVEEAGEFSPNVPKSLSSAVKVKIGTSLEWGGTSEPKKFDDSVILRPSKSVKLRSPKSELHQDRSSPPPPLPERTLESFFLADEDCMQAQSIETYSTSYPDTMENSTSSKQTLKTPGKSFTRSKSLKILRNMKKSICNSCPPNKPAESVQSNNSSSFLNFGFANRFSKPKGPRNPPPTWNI

[10] = target: Tyrosine-protein phosphatase non-receptor type 5 (Homo sapiens, UniProt P54829); experiment: PTPN5 enzyme inhibition – biochemical, fluorescence intensity, uHTS hits, confirmation (AID 602372); assay type: functional; details: read-out: IC50_Mean
[11] = target: T3, DNA repair and recombination protein RAD54-like (Homo sapiens, UniProt Q92698); experiment: RAD54 Holliday junction migration blockers – biochemical, fluorescence, cherry-picked samples, dose series, confirmation (AID 651657); assay type: functional
T3 sequence (Q92698 whole entry): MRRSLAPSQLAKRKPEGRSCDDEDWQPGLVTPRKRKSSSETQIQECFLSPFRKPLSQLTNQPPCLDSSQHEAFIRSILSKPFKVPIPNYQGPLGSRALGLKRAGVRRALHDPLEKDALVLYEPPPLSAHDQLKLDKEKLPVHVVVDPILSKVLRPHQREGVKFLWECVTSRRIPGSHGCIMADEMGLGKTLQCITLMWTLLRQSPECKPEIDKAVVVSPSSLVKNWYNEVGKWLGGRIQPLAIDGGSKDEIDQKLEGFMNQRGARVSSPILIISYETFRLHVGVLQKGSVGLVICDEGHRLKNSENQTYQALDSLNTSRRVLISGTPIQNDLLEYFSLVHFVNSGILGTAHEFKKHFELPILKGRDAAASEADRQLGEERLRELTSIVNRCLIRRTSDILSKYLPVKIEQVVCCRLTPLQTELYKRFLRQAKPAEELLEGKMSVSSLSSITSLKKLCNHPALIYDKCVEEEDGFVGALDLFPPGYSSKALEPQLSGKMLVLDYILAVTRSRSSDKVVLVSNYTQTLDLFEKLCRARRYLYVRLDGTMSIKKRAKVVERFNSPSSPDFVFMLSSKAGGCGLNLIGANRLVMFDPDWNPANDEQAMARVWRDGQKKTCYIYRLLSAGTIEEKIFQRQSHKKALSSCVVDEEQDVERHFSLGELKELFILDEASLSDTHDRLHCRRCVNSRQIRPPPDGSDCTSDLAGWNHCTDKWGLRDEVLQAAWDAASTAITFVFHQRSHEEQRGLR

[12] = target: T4, DNA repair protein RAD52 homolog (Homo sapiens, UniProt P43351); assay type: functional, biochemical
T4 sequence (P43351 whole entry): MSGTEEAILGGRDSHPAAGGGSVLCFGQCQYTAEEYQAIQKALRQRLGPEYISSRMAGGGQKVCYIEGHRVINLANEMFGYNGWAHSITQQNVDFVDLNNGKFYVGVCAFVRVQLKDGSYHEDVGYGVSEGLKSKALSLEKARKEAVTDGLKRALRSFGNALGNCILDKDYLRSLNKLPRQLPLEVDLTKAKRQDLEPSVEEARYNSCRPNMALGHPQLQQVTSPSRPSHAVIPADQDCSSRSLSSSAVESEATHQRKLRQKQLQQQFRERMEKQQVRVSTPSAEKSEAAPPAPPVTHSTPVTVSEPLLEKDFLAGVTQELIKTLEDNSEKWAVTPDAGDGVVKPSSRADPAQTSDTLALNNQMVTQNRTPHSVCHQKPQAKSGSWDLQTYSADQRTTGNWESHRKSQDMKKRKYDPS

[13] = cytotoxicity toward MDA-MB-231 breast cancer cells – cell-based, CellTiter-Glo luminescence, cherry-pick, cytotoxicity control for RAD54 inhibitor project, dose response (AID 651692); assay type: functional
[14] = target: 5-hydroxytryptamine receptor 2A (Mus musculus, UniProt P35363); assay type: functional, cell-based;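 also: CHO-K1 cells with tagged receptor and beta-arrestin; agonist potency measured as compound-induced activation of the receptor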
Mu-type opioid receptor = Mu-type opioid receptor (Homo sapiens, UniProt P35372); assay type: functional, cell-based;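 also: U2OS cells with beta-arrestin recruitment to OPRM1 by beta-gal complementation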
[15] = intracellular Trypanosoma cruzi inhibitors in host cells – cell-based, plate reader, cherry-pick samples, set 3, dose response (AID 651818); assay type: functional;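 also: compounds incubated with infected cells for about four days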
[16] = mouse fibroblast viability loss – cell-based, cherry-pick samples, set 2, cytotoxicity control for T. cruzi growth inhibitor project, dose response (AID 651817); assay type: functional; details: NIH3T3
Steroidogenic factor 1 = Steroidogenic factor 1 (Homo sapiens, UniProt Q13285); experiment: Counterscreen for inverse agonists of the liver receptor homolog-1 (LRH-1; NR5A2): Luminescence-based cell-based high throughput dose response assay to identify inverse agonists of the Steroidogenic Factor 1 Nuclear Receptor (SF1; NR5A1).; assay type: functional
[17] = target: Nuclear receptor subfamily 5 group A member 2 (Homo sapiens, UniProt O00482); assay type: functional, cell-based;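 also: HEK293T cells transfected with LRH-1 and a StAR promoter luciferase reporter; potency for inhibitors that lower LRH-1 driven reporter light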
[18] = nonselective StAR promoter luciferase inhibitors – cell-based, luminescence, luciferase reporter, counter-screen for LRH-1 inverse agonist project, dose response (AID 651969); assay type: functional
[19] = target: T5, Alkaline phosphatase, tissue-nonspecific isozyme (Homo sapiens, UniProt P05186); experiment: TNAP enzyme inhibition by screening hits, dose response, selectivity assay for mouse IAP inhibitor project, biochemical, human TNAP, uHTS hits (AID 488906); assay type: functional
T5 sequence (P05186 whole entry): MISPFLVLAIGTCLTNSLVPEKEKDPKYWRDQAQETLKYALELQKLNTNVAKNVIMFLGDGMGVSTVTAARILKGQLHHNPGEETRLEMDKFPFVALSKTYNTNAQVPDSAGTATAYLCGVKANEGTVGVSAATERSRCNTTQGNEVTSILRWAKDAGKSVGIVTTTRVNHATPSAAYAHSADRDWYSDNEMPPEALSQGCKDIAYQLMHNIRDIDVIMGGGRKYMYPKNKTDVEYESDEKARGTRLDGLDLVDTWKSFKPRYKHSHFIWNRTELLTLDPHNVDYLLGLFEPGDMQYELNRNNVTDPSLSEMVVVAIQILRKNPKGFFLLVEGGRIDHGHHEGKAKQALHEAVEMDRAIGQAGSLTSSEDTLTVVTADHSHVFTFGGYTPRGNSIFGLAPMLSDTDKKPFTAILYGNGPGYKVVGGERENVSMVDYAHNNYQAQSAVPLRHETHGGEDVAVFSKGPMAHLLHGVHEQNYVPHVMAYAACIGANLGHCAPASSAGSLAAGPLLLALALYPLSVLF

[20] = target: Intestinal-type alkaline phosphatase (Mus musculus, UniProt P24822); experiment: PubChem AID 488785; assay type: functional
[21] = viability of PTEN-deleted HCT116 cells – cell-based, HCT116 PTEN knockout, dose response (AID 1047); assay type: functional;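 also: HCT116 colon tumor cells with PTEN knocked out; cells exposed to compound for 60 hours before readout; potency for loss of cell viability measured by luminescence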
Cytochrome P450 2C9 = Cytochrome P450 2C9 (Homo sapiens, UniProt P11712)
[22] = target: Hepatocyte nuclear factor 4-alpha (Homo sapiens, UniProt P41235); assay type: functional, cell-based;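 also: biochemical luminescence-based dose-response counterscreen measuring inhibition of HNF4 dimerization, run alongside a screen for blockers of ABHD5–perilipin-5 interaction; split luciferase complementation of HNF4 fusion proteins in cell lysate measuring dimerization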
[23] = viability of HCT116 lacking mutant beta-catenin – cell-based, human colon tumor, dose response (AID 1045); assay type: functional;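 also: HCT116 colon tumor cells with beta catenin knocked out; cells exposed to compound for 60 hours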
Cytochrome P450 1A2 = target: T6, Cytochrome P450 1A2 (Homo sapiens, UniProt P05177);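 also: PubChem cytochrome P450 panel assay, CYP1A2 panel member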
T6 sequence (P05177 whole entry): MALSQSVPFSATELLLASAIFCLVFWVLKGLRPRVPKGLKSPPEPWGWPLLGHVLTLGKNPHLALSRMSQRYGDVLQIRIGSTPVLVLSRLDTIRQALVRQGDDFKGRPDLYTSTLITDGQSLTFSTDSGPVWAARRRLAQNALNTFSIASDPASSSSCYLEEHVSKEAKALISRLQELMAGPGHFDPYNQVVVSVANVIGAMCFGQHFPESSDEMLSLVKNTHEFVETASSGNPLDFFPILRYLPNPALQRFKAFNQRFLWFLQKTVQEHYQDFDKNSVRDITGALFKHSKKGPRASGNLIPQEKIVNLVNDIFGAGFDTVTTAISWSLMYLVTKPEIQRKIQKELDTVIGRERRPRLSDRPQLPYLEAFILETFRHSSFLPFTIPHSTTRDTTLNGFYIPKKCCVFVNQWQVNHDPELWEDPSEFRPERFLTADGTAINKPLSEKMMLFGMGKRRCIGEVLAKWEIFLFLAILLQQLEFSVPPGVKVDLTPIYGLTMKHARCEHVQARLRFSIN

[24] = target: Intestinal-type alkaline phosphatase (Homo sapiens, UniProt P09923); experiment: inhibition of human intestinal alkaline phosphatase – biochemical, dose response (AID 488876); assay type: functional
INS1 = experiment: INS-1E survival protection against cytokine death – cell-based, luminescence, retest, dose response (AID 449756); assay type: functional; details: Rattus norvegicus;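 also: cell death triggered by IL-1 beta plus TNF-alpha plus IFN-gamma mixture; protective hits raise ATP signal compared with cytokine alone wells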
Beta-lactamase [25] = target: Beta-lactamase (Salmonella choleraesuis (strain SC-B67), UniProt Q5J463); experiment: Epi-absorbance-based counterscreen for selective VIM-2 inhibitors: dose response biochemical high throughput screening assay to identify inhibitors of TEM-1 serine-beta-lactamase.
Beta-lactamase [26] = target: T7, Beta-lactamase (Pseudomonas aeruginosa, UniProt Q79MP6); experiment: […] counterscreen for selective VIM-2 inhibitors: dose response biochemical high throughput screening assay to identify inhibitors of IMP-1 metallo-beta-lactamase.
Beta-lactamase [27] = target: T7, Beta-lactamase; experiment: inhibition of IMP-1 beta-lactamase activity – biochemical, epi-absorbance, selectivity assay for VIM-2 inhibitor project, dose response (AID 1920)

T1 sequence (P63165 whole entry): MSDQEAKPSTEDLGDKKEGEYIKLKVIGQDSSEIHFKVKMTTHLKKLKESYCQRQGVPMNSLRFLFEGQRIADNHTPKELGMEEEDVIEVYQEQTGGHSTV
T7 sequence (Q79MP6 whole entry): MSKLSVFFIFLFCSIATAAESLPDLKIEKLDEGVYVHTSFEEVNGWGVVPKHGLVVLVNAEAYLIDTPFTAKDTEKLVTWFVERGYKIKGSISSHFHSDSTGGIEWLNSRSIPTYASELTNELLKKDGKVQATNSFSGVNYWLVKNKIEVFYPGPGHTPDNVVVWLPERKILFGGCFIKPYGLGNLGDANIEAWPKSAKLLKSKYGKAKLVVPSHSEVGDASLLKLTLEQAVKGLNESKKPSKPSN
Chain of Intestinal-type alkaline phosphatase (Homo sapiens, UniProt P09923) (P09923 whole entry): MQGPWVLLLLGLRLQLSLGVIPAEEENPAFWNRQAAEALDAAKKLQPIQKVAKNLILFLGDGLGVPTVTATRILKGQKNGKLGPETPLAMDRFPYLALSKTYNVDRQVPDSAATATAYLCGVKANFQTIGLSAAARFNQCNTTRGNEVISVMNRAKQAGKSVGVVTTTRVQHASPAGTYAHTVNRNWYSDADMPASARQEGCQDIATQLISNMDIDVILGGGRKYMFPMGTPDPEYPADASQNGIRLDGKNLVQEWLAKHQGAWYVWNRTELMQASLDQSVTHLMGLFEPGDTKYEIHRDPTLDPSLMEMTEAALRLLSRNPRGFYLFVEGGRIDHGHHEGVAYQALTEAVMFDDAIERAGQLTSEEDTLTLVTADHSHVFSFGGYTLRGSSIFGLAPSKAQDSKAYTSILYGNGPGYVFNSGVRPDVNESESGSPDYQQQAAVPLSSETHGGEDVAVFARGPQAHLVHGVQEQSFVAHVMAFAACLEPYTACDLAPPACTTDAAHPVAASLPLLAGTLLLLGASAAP
Chain of Tyrosine-protein phosphatase non-receptor type 11 (Q06124 whole entry): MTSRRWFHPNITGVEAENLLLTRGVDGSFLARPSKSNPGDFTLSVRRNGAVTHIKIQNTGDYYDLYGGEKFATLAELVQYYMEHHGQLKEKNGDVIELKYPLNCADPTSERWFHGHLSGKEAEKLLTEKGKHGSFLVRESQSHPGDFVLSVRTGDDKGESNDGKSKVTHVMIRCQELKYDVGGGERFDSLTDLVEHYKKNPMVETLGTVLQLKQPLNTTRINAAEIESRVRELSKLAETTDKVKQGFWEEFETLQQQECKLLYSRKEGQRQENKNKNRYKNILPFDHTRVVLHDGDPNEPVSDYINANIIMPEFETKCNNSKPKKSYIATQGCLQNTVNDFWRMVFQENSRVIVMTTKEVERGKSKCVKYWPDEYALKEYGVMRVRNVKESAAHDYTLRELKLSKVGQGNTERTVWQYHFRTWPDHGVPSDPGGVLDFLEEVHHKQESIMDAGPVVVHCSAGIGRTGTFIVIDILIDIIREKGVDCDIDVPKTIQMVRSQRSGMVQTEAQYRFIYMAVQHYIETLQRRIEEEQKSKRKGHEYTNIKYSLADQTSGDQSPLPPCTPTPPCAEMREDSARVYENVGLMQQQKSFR
Chain of Photoreceptor-specific nuclear receptor (Q9Y5X4 whole entry, the tested form may be a part): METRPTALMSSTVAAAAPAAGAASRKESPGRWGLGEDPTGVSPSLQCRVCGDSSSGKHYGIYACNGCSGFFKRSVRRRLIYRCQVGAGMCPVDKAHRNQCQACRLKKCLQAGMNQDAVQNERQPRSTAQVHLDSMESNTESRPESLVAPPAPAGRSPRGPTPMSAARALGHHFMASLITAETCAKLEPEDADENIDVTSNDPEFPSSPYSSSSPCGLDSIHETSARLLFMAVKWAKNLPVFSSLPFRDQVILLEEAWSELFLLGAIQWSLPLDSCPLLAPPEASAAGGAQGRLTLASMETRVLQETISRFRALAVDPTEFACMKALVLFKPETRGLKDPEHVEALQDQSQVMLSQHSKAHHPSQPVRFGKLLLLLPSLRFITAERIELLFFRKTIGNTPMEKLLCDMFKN
Chain of Intestinal-type alkaline phosphatase (Mus musculus, UniProt P24822) (P24822 whole entry): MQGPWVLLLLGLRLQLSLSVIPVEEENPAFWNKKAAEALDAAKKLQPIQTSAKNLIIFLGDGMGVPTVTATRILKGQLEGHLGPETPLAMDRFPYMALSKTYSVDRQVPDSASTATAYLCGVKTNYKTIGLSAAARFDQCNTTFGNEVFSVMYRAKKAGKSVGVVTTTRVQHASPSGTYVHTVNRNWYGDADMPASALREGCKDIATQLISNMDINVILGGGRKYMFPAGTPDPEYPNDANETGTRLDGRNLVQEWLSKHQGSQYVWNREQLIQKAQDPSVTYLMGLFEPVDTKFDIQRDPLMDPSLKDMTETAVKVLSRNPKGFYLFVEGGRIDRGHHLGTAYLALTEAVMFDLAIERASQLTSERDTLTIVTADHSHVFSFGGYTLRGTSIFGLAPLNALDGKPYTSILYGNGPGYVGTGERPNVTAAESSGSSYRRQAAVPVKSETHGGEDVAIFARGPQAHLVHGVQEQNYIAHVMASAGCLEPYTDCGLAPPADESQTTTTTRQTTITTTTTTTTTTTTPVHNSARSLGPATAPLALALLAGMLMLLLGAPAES
Chain of Cytochrome P450 2C9 (P11712 whole entry, the tested form may be a part): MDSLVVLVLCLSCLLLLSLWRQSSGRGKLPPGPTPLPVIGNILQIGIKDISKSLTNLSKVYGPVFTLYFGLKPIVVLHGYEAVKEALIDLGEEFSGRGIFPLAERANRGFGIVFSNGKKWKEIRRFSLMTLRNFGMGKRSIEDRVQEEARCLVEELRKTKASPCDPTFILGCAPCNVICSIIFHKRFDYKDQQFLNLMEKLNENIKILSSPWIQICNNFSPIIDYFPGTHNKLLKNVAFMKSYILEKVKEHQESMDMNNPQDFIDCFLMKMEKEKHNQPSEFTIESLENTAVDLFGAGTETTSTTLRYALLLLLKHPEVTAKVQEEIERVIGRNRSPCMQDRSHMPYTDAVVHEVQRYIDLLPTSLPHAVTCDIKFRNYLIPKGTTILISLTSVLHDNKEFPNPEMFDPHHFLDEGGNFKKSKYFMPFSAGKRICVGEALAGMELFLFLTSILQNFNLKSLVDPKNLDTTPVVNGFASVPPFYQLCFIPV
Chain of 5-hydroxytryptamine receptor 2A (P35363 whole entry): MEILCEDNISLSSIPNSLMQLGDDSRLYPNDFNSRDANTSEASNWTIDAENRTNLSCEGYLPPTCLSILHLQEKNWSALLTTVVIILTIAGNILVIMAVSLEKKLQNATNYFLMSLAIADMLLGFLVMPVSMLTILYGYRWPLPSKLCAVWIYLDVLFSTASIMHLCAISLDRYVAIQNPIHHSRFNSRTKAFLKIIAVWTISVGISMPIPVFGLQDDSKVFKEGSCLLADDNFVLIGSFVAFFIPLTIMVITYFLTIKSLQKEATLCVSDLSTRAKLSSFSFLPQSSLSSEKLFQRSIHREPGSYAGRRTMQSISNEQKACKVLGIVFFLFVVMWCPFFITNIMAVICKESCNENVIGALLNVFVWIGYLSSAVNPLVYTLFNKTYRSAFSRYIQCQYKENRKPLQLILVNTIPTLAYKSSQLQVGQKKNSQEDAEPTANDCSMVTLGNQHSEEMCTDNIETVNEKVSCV
Chain of Mu-type opioid receptor (P35372 whole entry): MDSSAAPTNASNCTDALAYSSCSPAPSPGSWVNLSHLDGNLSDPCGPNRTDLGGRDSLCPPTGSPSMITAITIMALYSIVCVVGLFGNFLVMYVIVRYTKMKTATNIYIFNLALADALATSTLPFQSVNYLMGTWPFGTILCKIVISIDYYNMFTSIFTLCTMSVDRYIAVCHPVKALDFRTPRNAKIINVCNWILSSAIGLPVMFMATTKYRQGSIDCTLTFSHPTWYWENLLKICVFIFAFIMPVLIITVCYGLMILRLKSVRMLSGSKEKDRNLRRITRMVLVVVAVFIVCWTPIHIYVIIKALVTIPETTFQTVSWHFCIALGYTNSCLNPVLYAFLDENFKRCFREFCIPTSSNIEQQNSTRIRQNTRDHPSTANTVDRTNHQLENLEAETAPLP
Chain of Hepatocyte nuclear factor 4-alpha (P41235 whole entry, the tested form may be a part): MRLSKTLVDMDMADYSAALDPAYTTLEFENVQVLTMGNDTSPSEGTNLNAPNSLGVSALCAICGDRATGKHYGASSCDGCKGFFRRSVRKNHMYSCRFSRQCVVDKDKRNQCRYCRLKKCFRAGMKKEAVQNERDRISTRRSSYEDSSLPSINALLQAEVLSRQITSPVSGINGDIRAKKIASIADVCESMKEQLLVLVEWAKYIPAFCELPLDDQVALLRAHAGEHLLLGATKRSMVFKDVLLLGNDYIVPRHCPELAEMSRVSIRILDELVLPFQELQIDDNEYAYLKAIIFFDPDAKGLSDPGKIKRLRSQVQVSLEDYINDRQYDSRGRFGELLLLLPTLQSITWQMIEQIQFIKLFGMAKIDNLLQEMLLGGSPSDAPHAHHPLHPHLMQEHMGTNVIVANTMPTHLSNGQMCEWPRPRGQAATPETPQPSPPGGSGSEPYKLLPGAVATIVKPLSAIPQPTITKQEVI
Chain of Steroidogenic factor 1 (Q13285 whole entry): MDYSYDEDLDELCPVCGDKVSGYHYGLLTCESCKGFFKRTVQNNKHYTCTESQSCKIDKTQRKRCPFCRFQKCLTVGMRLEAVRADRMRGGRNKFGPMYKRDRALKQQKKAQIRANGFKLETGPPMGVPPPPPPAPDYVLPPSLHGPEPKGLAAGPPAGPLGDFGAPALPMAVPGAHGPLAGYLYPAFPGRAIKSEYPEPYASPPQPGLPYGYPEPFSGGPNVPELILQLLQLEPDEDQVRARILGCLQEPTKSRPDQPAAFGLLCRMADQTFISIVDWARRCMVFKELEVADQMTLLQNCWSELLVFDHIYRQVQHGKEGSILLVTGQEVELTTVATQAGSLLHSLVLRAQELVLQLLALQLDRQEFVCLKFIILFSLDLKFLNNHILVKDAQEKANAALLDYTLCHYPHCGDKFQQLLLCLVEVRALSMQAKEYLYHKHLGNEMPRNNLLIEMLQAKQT
Chain of Dual specificity protein phosphatase 3 (P51452 whole entry): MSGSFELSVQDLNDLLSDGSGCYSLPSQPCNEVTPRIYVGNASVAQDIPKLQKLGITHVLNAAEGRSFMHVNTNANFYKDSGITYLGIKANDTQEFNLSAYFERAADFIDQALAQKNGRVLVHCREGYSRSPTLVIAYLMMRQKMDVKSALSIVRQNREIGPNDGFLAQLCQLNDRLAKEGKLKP

## COC(=O)Cn1cc(/C=N/NC(=O)COc2cccc3cccnc23)c2ccccc21
[1]
  IC50: 119 µM (inactive)
[2]
  IC50: 116 µM (inactive)

## CCc1ccccc1Nc1nn2c(=O)c3ccc(C(=O)NCc4ccccn4)cc3nc2s1
[3]
  IC50: 10.4 µM (active)
[4]
  IC50: > 66.6 µM (inactive)
[5]
  IC50: 13.1 µM (inactive)
[6]
  AC50: 0.343 µM (active)

## CC1=C(C(=O)OC(C)C)C(c2ccc(Cl)cc2)n2c(s/c(=C\c3ccc(OCC(=O)O)cc3)c2=O)=N1 (centres undefined)
[3]
  IC50: 7.22 µM (active)
[7]
  IC50: 3.24 µM (active)
[8]
  IC50: 3.02 µM (active)
[9]
  IC50: 14.7 µM (active)
[4]
  IC50: > 66.6 µM (inactive)
[10]
  IC50: 4.68 µM (active)

## COc1ccc(-c2oc3ncnc(NCCCN(C)C)c3c2-c2ccc(OC)cc2)cc1
[11]
  AC50: 21.7 µM (active)
[12]
  AC50: 3.48 µM (active)
[13]
  AC50: 12.9 µM (active)

## Cc1ccccc1C(=O)O/N=C(\c1ccccc1)c1ccccn1
[14]
  EC50: 20.2 µM (inactive)
Mu-type opioid receptor
  EC50: 92.5 µM (inactive)

## COc1ccc(CN(C)C[C@@H]2Oc3c(NC(=O)Nc4ccc(C(F)(F)F)cc4)cccc3C(=O)N([C@H](C)CO)C[C@H]2C)cc1
[15]
  AC50: 1.8 µM (active)
[16]
  AC50: 11.3 µM (active)

## CCOc1ccc(NC(=O)COC(=O)c2ccc3c(c2)OCCO3)cc1
Steroidogenic factor 1
  IC50: 1.01 µM (active)
[17]
  IC50: 12.9 µM (inactive)
[18]
  IC50: 35.9 µM (inactive)

## CCOc1cc(/C=C2\CCC/C(=C\c3cc(Cl)c(O)c(OCC)c3)C2=O)cc(Cl)c1O
[19]
  IC50: > 100 µM (inactive)
[20]
  IC50: 7.08 µM (active)
[21]
  EC50: 2.24 µM (active)
Cytochrome P450 2C9
  AC50: inconclusive
[22]
  IC50: 6.46 µM (active)
[23]
  EC50: 2.23 µM (active)
Cytochrome P450 1A2
  AC50: 10 µM (inconclusive)
[24]
  IC50: > 100 µM (inactive)
INS1
  AC50: 8.02 µM (active)

## CCCCc1cc(=O)oc2c3c(cc(OCC(=O)N4CCC[C@H]4C(=O)O)c12)OC(C)(C)CC3
Beta-lactamase [25]
  IC50: > 59.6 µM (inactive)
Beta-lactamase [26]
  IC50: > 59.6 µM (inactive)
Beta-lactamase [27]
  IC50: > 59.6 µM (inactive)
